According to patent US8445005B2, “Antiwrinkle agent, lipolysis promoter, external composition for skin and food and beverage composition” (Kao Corporation, priority 2004, dated 2013):

Assays:
Mouse 3T3-L1 cells = test: Lipolysis promoting effect: glycerol release from mature adipocytes; type: cell-based; details: test concentration 0.10% by mass; 90 minutes; norepinephrine 3×10^−8 mol/L; control = 100
Procedure: Mouse 3T3-L1 cells purchased from Dainippon Pharmaceutical Co., Ltd. were cultured in a 24-well culture plate according to the method of […], et al. ([…]. et al., Biochim. Biophys. Acta., 1581: 36-48 (2002)) at 37° C. in a 5% (v/v) CO2 atmosphere, and these cells were used in the test as mature adipocytes. Test media were prepared by adding test samples at predetermined concentrations to DMEM medium containing bovine serum albumin and norepinephrine (final concentration: 3×10^-8 mol/L). The said mature adipocytes were cultured in the test media for 90 minutes to be reacted with the test samples. Following the reaction, the glycerol released into the media was quantified by […] using the F Kit Glycerol (Roche). The lipolysis promotion rate was calculated according to the equation below based on the quantified glycerol values to serve as an indicator of lipolysis promoting effect: Lipolysis promotion rate(%)=[A/B]×100 (wherein A represents the amount of glycerol with addition of test sample, and B represents the amount of glycerol of a control (without addition of test sample)). (Test Results) […] Zingerone and caffeine were used as comparative controls.

photoaged skin = test: Wrinkle ameliorative effect: wrinkle score in photo-aged hairless mice; type: in vivo; details: Results 1; 1.0% sample in 50% aqueous ethanol, 0.1 ml once a day, five times a week on dorsal skin; score 0-3; base only 2.65 ± 0.08; listed as Example 2
Procedure: Samples containing 1.0% each of the guinea ginger extract, paradol or acetylated guinea ginger extract obtained in Production Examples 1 to 3 were prepared, using a 50% aqueous ethanol solution for the base (Example 1, 2 or 3, respectively), and wrinkle ameliorative effects on photoaged skin were investigated using the test method described below. Hairless mice, 10 weeks old at the start of the test, were used in groups of 10 animals each. Photo-aging was induced by irradiating skin with UVA and UVB once a day, five times a week for eight weeks. The irradiated doses were 20, 25 and 30 J/cm^2 for UVA and 20, 30 and 40 mJ/cm^2 for UVB. The doses were elevated every week, and the skin was irradiated at the maximum doses after the third week. Wrinkle ameliorative effect was evaluated using a wrinkle score and a dermal collagen level. The wrinkle score was determined according to the method of Bissett, et al. (Photochem. Photobiol., 46: 367-378, 1987). Namely, the size and depth of wrinkles were comprehensively evaluated macroscopically, and evaluated according to one of four levels consisting of a score of 3 for “large, deep wrinkles able to be confirmed”, 2 for “wrinkles able to be confirmed”, 1 for “wrinkles unable to be confirmed” and 0 for “normal skin texture observed”. […] Wrinkle scores were then determined following completion of the final application. […]

SMILES	Lipolysis promotion rate (%) (mean ± SE) (Mouse 3T3-L1 cells)	Wrinkle Score (mean ± SE) (photoaged skin)
Cn1c(=O)c2c(ncn2C)n(C)c1=O [Caffeine]	234.93 ± 11.23%	–
CCCCCCCC(=O)CCc1ccc(O)c(OC)c1 [Paradol, 1-(4′-hydroxy-3′-methoxyphenyl)-3-decanone]	554.68 ± 107.62%	2.40 ± 0.23
COc1cc(CCC(C)=O)ccc1O [Zingerone]	191.85 ± 69.83%	–
